Values quoted from earlier work as cited in US7666887B2, “Stable, neutral pH, VOC-free biocidal compositions of 1,2-benzisothiazolin-3-one” (ISP Investments, Inc., priority 2004, dated 2010).

Columns and labels:
[1] = in some individuals

O=c1[nH]sc2ccccc12 [BIT, 1,2-benzisothiazolin-3-one]
sensitization [1]: can cause sensitization
aqueous solubility: low
